Test results as given in patent publication US20240092784A1, “CONDENSED HETEROCYCLIC COMPOUND” (NISSAN CHEMICAL CORPORATION, priority 2020, published 2024).

biological target: human SPR (Homo sapiens (Human), UniProt P35270); assay: Evaluation Example 2: Measurement of human SPR inhibitory activity (seven concentrations, sepiapterin absorbance at 420 nm); type: biochemical; conditions: sepiapterin absorbance, Table 41, read-out: concentration at 50% inhibition of human SPR (IC50)
Method in brief: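 His-tagged full-length human SPR (1-261) was expressed in E. coli and the tag removed. Enzyme at 150 ng/mL in 100 mM Tris-HCl pH 7.5/0.01% BSA was mixed with compound (0.14–100 nM, seven points), 120 μM sepiapterin and 160 μM NADPH, both as added-solution concentrations. After 240 min at room temperature, remaining sepiapterin was read at 420 nm to give percent inhibition.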

human SPR, sequence (P35270 whole entry): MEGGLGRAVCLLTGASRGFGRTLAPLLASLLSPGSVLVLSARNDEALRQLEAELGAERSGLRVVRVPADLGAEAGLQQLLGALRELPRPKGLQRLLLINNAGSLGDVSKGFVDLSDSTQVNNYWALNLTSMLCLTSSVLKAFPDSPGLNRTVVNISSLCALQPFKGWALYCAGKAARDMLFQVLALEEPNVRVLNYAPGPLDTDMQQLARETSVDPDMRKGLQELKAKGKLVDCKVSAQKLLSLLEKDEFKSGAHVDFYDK

SMILES | IC50
COC[C@H]1COCCN1C(=O)/C=C/c1c(C)nn2c(O)c(C(=O)NC3CC3)c(=O)n(CC(C)(C)C)c12 [Synthesis Example 694, (S,E)-N-Cyclopropyl-7-hydroxy-3-(3-(3-(methoxymethyl)morpholino)-3-oxoprop-1-en-1-yl)-2-methyl-4-neopentyl-5-oxo-4,5-dihydropyrazolo[1,5-a]pyrimidine-6-carboxamide] | 0.85 nM
Cc1nn2c(O)c(C(=O)NC3CC3)c(=O)n(CC(C)C)c2c1/C=C/C(=O)N1CCOc2ccncc21 [Synthesis Example 695, (E)-N-Cyclopropyl-3-(3-(2,3-dihydro-4H-pyrido[4,3-b][1,4]oxazin-4-yl)-3-oxoprop-1-en-1-yl)-7-hydroxy-4-isobutyl-2-methyl-5-oxo-4,5-dihydropyrazolo[1,5-a]pyrimidine-6-carboxamide] | 1.3 nM
Cc1nn2c(O)c(C(=O)NC3CC3)c(=O)n(CC(C)C)c2c1/C=C/C(=O)N1CCOc2ccccc21 [Synthesis Example 696, (E)-N-Cyclopropyl-3-(3-(2,3-dihydro-4H-benz[b][1,4]oxazin-4-yl)-3-oxoprop-1-en-1-yl)-7-hydroxy-4-isobutyl-2-methyl-5-oxo-4,5-dihydropyrazolo[1,5-a]pyrimidine-6-carboxamide] | 1.71 nM
Cc1nn2c(O)c(C(=O)NC3CC3)c(=O)n(CC(C)C)c2c1/C=C/C(=O)N1CCN(C2CC(F)(F)C2)C[C@H]1C [Synthesis Example 697, (R,E)-N-Cyclopropyl-3-(3-(4-(3,3-difluorocyclobutyl)-2-methylpiperazin-1-yl)-3-oxoprop-1-en-1-yl)-7-hydroxy-4-isobutyl-2-methyl-5-oxo-4,5-dihydropyrazolo[1,5-a]pyrimidine-6-carboxamide] | 1.22 nM
Cc1nn2c(O)c(C(=O)NC3CC3)c(=O)n(CC(C)C)c2c1/C=C/C(=O)N1CCN(CC2CC(F)(F)C2)CC1 [Synthesis Example 698, (E)-N-Cyclopropyl-3-(3-(4-((3,3-difluorocyclobutyl)methyl)piperazin-1-yl)-3-oxoprop-1-en-1-yl)-7-hydroxy-4-isobutyl-2-methyl-5-oxo-4,5-dihydropyrazolo[1,5-a]pyrimidine-6-carboxamide] | 1.52 nM
Cc1nn2c(O)c(C(=O)NC3CC3)c(=O)n(CC(C)C)c2c1/C=C/C(=O)N1CCc2ccncc21 [Synthesis Example 699, (E)-N-Cyclopropyl-3-(3-(2,3-dihydro-1H-pyrrolo[2,3-c]pyridin-1-yl)-3-oxoprop-1-en-1-yl)-7-hydroxy-4-isobutyl-2-methyl-5-oxo-4,5-dihydropyrazolo[1,5-a]pyrimidine-6-carboxamide] | 1.47 nM
Cc1nn2c(O)c(C(=O)NC3CC3)c(=O)n(CC(C)C)c2c1/C=C/C(=O)N1CC[C@@H](C(C)(C)O)C1 [Synthesis Example 700, (R,E)-N-Cyclopropyl-7-hydroxy-3-(3-(3-(2-hydroxypropan-2-yl)pyrrolidin-1-yl)-3-oxoprop-1-en-1-yl)-4-isobutyl-2-methyl-5-oxo-4,5-dihydropyrazolo[1,5-a]pyrimidine-6-carboxamide] | 0.96 nM
Cc1nn2c(O)c(C(=O)NC3CC3)c(=O)n(CC(C)C)c2c1/C=C/C(=O)N1CCN(C)C[C@@H]1C [Synthesis Example 701, (S,E)-N-Cyclopropyl-3-(3-(2,4-dimethylpiperazin-1-yl)-3-oxoprop-1-en-1-yl)-7-hydroxy-4-isobutyl-2-methyl-5-oxo-4,5-dihydropyrazolo[1,5-a]pyrimidine-6-carboxamide] | 0.98 nM
Cc1nn2c(O)c(C(=O)NC3CC3)c(=O)n(CC(C)C)c2c1/C=C/C(=O)N1CCN(C)C[C@H]1C [Synthesis Example 702, (R,E)-N-Cyclopropyl-3-(3-(2,4-dimethylpiperazin-1-yl)-3-oxoprop-1-en-1-yl)-7-hydroxy-4-isobutyl-2-methyl-5-oxo-4,5-dihydropyrazolo[1,5-a]pyrimidine-6-carboxamide] | 0.87 nM
Cc1nn2c(O)c(C(=O)NC3CC3)c(=O)n(CC(C)C)c2c1/C=C/C(=O)N1CCN(CC2CC(F)(F)C2)C[C@@H]1C [Synthesis Example 703, (S,E)-N-Cyclopropyl-3-(3-(4-((3,3-difluorocyclobutyl)methyl)-2-methylpiperazin-1-yl)-3-oxoprop-1-en-1-yl)-7-hydroxy-4-isobutyl-2-methyl-5-oxo-4,5-dihydropyrazolo[1,5-a]pyrimidine-6-carboxamide] | 1.44 nM
Cc1nn2c(O)c(C(=O)NC3CC3)c(=O)n(CC(C)C)c2c1/C=C/C(=O)N1CCN(CC2CC(F)(F)C2)C[C@H]1C [Synthesis Example 704, (R,E)-N-Cyclopropyl-3-(3-(4-((3,3-difluorocyclobutyl)methyl)-2-methylpiperazin-1-yl)-3-oxoprop-1-en-1-yl)-7-hydroxy-4-isobutyl-2-methyl-5-oxo-4,5-dihydropyrazolo[1,5-a]pyrimidine-6-carboxamide] | 1.52 nM
Cc1nn2c(O)c(C(=O)NC3CC3)c(=O)n(CC(C)C)c2c1/C=C/C(=O)N1CCc2cnccc21 [Synthesis Example 705, (E)-N-Cyclopropyl-3-(3-(2,3-dihydro-1H-pyrrolo[3,2-c]pyridin-1-yl)-3-oxoprop-1-en-1-yl)-7-hydroxy-4-isobutyl-2-methyl-5-oxo-4,5-dihydropyrazolo[1,5-a]pyrimidine-6-carboxamide] | 1.58 nM
Cc1nn2c(O)c(C(=O)NC3CC3)c(=O)n(CC(C)C)c2c1/C=C/C(=O)N1CCOCC12CC2 [Synthesis Example 706, (E)-N-Cyclopropyl-7-hydroxy-4-isobutyl-2-methyl-5-oxo-3-(3-oxo-3-(7-oxa-4-azaspiro[2.5]octan-4-yl)prop-1-en-1-yl)-4,5-dihydropyrazolo[1,5-a]pyrimidine-6-carboxamide] | 0.82 nM
CCN1CCN(C(=O)/C=C/c2c(C)nn3c(O)c(C(=O)NC4CC4)c(=O)n(CC(C)C)c23)[C@@H](C)C1 [Synthesis Example 707, (S,E)-N-Cyclopropyl-3-(3-(4-ethyl-2-methylpiperazin-1-yl)-3-oxoprop-1-en-1-yl)-7-hydroxy-4-isobutyl-2-methyl-5-oxo-4,5-dihydropyrazolo[1,5-a]pyrimidine-6-carboxamide] | 0.84 nM
CC(C)Cn1c(=O)c(C(=O)NC2CC2)c(O)n2ncc(/C=C/C(=O)N3C[C@H]4COC[C@H]4C3)c12 [Synthesis Example 708, N-Cyclopropyl-7-hydroxy-4-isobutyl-5-oxo-3-((E)-3-oxo-3-((3aR,6aS)-tetrahydro-1H-furo[3,4-c]pyrrol-5(3H)-yl)prop-1-en-1-yl)-4,5-dihydropyrazolo[1,5-a]pyrimidine-6-carboxamide] | 0.74 nM
CC(C)Cn1c(=O)c(C(=O)NC2CC2)c(O)n2ncc(/C=C/C(=O)N(C)Cc3cnccn3)c12 [Synthesis Example 709, (E)-N-Cyclopropyl-7-hydroxy-4-isobutyl-3-(3-(methyl(pyrazin-2-ylmethyl)amino)-3-oxoprop-1-en-1-yl)-5-oxo-4,5-dihydropyrazolo[1,5-a]pyrimidine-6-carboxamide] | 0.85 nM
CC(C)Cn1c(=O)c(C(=O)NC2CC2)c(O)n2ncc(/C=C/C(=O)N(C)Cc3ccccn3)c12 [Synthesis Example 710, (E)-N-Cyclopropyl-7-hydroxy-4-isobutyl-3-(3-(methyl(pyridin-2-ylmethyl)amino)-3-oxoprop-1-en-1-yl)-5-oxo-4,5-dihydropyrazolo[1,5-a]pyrimidine-6-carboxamide] | 1.01 nM
